Test results published in the CheMixHub ionic liquid set.

Test: xn = mol fraction of the nth substance listed

CCC(=O)[O-].CC[NH+]1CCNCC1 + CCCO
101 kPa
Settings | viscosity [mPa·s]
298.15 K, x2 = 0.4017 | 47.45
308.15 K, x2 = 0.3041 | 39.45

CCCCCCCCn1cc[n+](C)c1.[Cl-] + CCCO
101 kPa
Settings | viscosity [mPa·s]
298.15 K, x2 = 0 | 21000
298.15 K, x2 = 0.7248 | 19.25
298.15 K, x2 = 0.9024 | 4.6
313.15 K, x2 = 0.407 | 160
328.15 K, x2 = 0 | 1091
328.15 K, x2 = 0.1071 | 560
328.15 K, x2 = 0.2407 | 231
328.15 K, x2 = 0.3036 | 144
328.15 K, x2 = 0.6209 | 17.73
328.15 K, x2 = 0.7248 | 8.25
328.15 K, x2 = 0.94 | 1.679
328.15 K, x2 = 0.9729 | 1.372

CC[n+]1ccn(C)c1.N#C[S-] + CCCO
viscosity [mPa·s], 101 kPa
Settings | 283.15 K | 293.15 K | 303.15 K | 313.15 K | 323.15 K
x1 = 0.0494 | 3.32 | 2.6 | 2.07 | 1.68 | 1.38
x1 = 0.0994 | 4.04 | 3.12 | 2.47 | 1.99 | 1.63
x1 = 0.1997 | 5.49 | 4.24 | 3.4 | 2.63 | 2.17
x1 = 0.3015 | 7.06 | 5.36 | 4.21 | 3.42 | 2.87
x1 = 0.3996 | 9.09 | 6.89 | 5.39 | 4.34 | 3.58
x1 = 0.4986 | 12.1 | 9.09 | 7.06 | 5.65 | 4.64
x1 = 0.5998 | 15.89 | 11.72 | 8.97 | 7.08 | 5.66
x1 = 0.7008 | 20.24 | 14.76 | 10.88 | 8.47 | 6.81
x1 = 0.8005 | 25.11 | 17.87 | 13.31 | 10.27 | 8.17
x1 = 0.9002 | 30.71 | 21.99 | 16.11 | 12.25 | 9.62
x1 = 0.946 | 34.98 | 24.14 | 17.68 | 13.52 | 10.63
x1 = 1 | 38.41 | 26.31 | 19.03 | 14.3 | 11.1

CCCCCCCCCCCCOS(=O)(=O)[O-].[Na+] + CCCO + O
298 K, 100 kPa, frequency 0.001 MHz
Settings | electrical conductivity [S/m]
x2 = 0.01543, x1 = 3.435e-05 | 0.0146
x2 = 0.02615, x3 = 0.9738 | 0.033
x2 = 0.04737, x3 = 0.9525 | 0.0508
x2 = 0.07172, x3 = 0.9277 | 0.102
x2 = 0.07173, x3 = 0.9279 | 0.0751

298.15 K, 101 kPa
Settings | electrical conductivity [S/m]
x2 = 0, x1 = 3.24e-06 | 0.001447
x2 = 0, x1 = 8.11e-06 | 0.003433
x2 = 0, x1 = 1.64e-05 | 0.006697
x2 = 0, x1 = 2.505e-05 | 0.01006
x2 = 0, x1 = 2.991e-05 | 0.0119
x2 = 0, x1 = 3.478e-05 | 0.01378
x2 = 0, x1 = 3.964e-05 | 0.01564
x2 = 0, x1 = 5.063e-05 | 0.01999
x2 = 0, x1 = 6.198e-05 | 0.02434
x2 = 0, x1 = 7.406e-05 | 0.02896
x2 = 0, x1 = 8.09e-05 | 0.03151
x2 = 0, x1 = 8.667e-05 | 0.03369
x2 = 0, x1 = 9.135e-05 | 0.03548
x2 = 0, x1 = 9.694e-05 | 0.03753
x2 = 0, x1 = 0.0001016 | 0.03931
x2 = 0, x1 = 0.000107 | 0.04131
x2 = 0, x1 = 0.0001175 | 0.0452
x2 = 0, x1 = 0.0001223 | 0.047
x2 = 0, x1 = 0.0001268 | 0.04874
x2 = 0, x1 = 0.0001315 | 0.0504
x2 = 0, x1 = 0.0001364 | 0.05202
x2 = 0, x1 = 0.0001411 | 0.05353
x2 = 0, x1 = 0.0001454 | 0.05471
x2 = 0, x1 = 0.0001541 | 0.05656
x2 = 0, x1 = 0.0001586 | 0.05737
x2 = 0, x1 = 0.0001631 | 0.05814
x2 = 0, x1 = 0.0001692 | 0.05912
x2 = 0, x1 = 0.0001735 | 0.05977
x2 = 0, x1 = 0.000178 | 0.06043
x2 = 0, x1 = 0.0001825 | 0.06112
x2 = 0, x1 = 0.0001892 | 0.06206
x2 = 0, x1 = 0.0001935 | 0.06269
x2 = 0, x1 = 0.0002002 | 0.06378
x2 = 0, x1 = 0.0002048 | 0.06444
x2 = 0, x1 = 0.0002097 | 0.06508
x2 = 0, x1 = 0.000214 | 0.06575
x2 = 0.007626, x1 = 0.0004015 | 0.09227
x2 = 0.007627, x1 = 0.0002602 | 0.06737
x2 = 0.007627, x1 = 0.0002829 | 0.07143
x2 = 0.007627, x1 = 0.0003124 | 0.07668
x2 = 0.007627, x1 = 0.0003456 | 0.08254
x2 = 0.007628, x1 = 0.0001267 | 0.04228
x2 = 0.007628, x1 = 0.000135 | 0.04399
x2 = 0.007628, x1 = 0.0001447 | 0.04592
x2 = 0.007628, x1 = 0.0001683 | 0.05047
x2 = 0.007628, x1 = 0.0001845 | 0.05346
x2 = 0.007628, x1 = 0.0002013 | 0.05663
x2 = 0.007628, x1 = 0.0002199 | 0.06003
x2 = 0.007628, x1 = 0.0002404 | 0.06381
x2 = 0.007629, x1 = 1.192e-05 | 0.004556
x2 = 0.007629, x1 = 1.321e-05 | 0.005113
x2 = 0.007629, x1 = 1.651e-05 | 0.00628
x2 = 0.007629, x1 = 1.962e-05 | 0.007449
x2 = 0.007629, x1 = 2.274e-05 | 0.00856
x2 = 0.007629, x1 = 2.623e-05 | 0.009738
x2 = 0.007629, x1 = 2.934e-05 | 0.01087
x2 = 0.007629, x1 = 3.228e-05 | 0.01189
x2 = 0.007629, x1 = 3.595e-05 | 0.01317
x2 = 0.007629, x1 = 3.925e-05 | 0.01435
x2 = 0.007629, x1 = 4.255e-05 | 0.01551
x2 = 0.007629, x1 = 4.823e-05 | 0.0178
x2 = 0.007629, x1 = 5.135e-05 | 0.0189
x2 = 0.007629, x1 = 5.465e-05 | 0.02006
x2 = 0.007629, x1 = 5.795e-05 | 0.02124
x2 = 0.007629, x1 = 6.474e-05 | 0.02366
x2 = 0.007629, x1 = 6.804e-05 | 0.02483
x2 = 0.007629, x1 = 7.152e-05 | 0.02603
x2 = 0.007629, x1 = 7.464e-05 | 0.02715
x2 = 0.007629, x1 = 7.776e-05 | 0.02824
x2 = 0.007629, x1 = 8.088e-05 | 0.02934
x2 = 0.007629, x1 = 8.418e-05 | 0.03045
x2 = 0.007629, x1 = 8.95e-05 | 0.03235
x2 = 0.007629, x1 = 9.426e-05 | 0.03397
x2 = 0.007629, x1 = 9.995e-05 | 0.03577
x2 = 0.007629, x1 = 0.0001049 | 0.03716
x2 = 0.007629, x1 = 0.0001146 | 0.03955
x2 = 0.01553, x1 = 4.687e-05 | 0.01553
x2 = 0.01553, x1 = 5.322e-05 | 0.01769
x2 = 0.01553, x1 = 7.282e-05 | 0.0238
x2 = 0.01553, x1 = 7.842e-05 | 0.02558
x2 = 0.01553, x1 = 8.757e-05 | 0.02822
x2 = 0.01553, x1 = 9.765e-05 | 0.03081
x2 = 0.01553, x1 = 0.0001083 | 0.03351
x2 = 0.01553, x1 = 0.0001201 | 0.03619
x2 = 0.01553, x1 = 0.0001298 | 0.03847
x2 = 0.01553, x1 = 0.0001533 | 0.04391
x2 = 0.01553, x1 = 0.0001677 | 0.04711
x2 = 0.01553, x1 = 0.0001815 | 0.05015
x2 = 0.01553, x1 = 0.0001979 | 0.05361
x2 = 0.01553, x1 = 0.0002319 | 0.06058
x2 = 0.01553, x1 = 0.0002511 | 0.06442
x2 = 0.01553, x1 = 0.0002703 | 0.06822
x2 = 0.01553, x1 = 0.0002877 | 0.0716
x2 = 0.01553, x1 = 0.0003082 | 0.07551
x2 = 0.01554, x1 = 5.98e-06 | 0.002351
x2 = 0.01554, x1 = 1.176e-05 | 0.004274
x2 = 0.01554, x1 = 1.811e-05 | 0.006392
x2 = 0.01554, x1 = 2.428e-05 | 0.008288
x2 = 0.01554, x1 = 2.894e-05 | 0.009768
x2 = 0.01554, x1 = 3.492e-05 | 0.01173

CCCCCCCCn1cc[n+](C)c1.[Cl-] + CCO
viscosity [mPa·s], 101 kPa
Settings | x2 = 0.0449 | x2 = 0.1305 | x2 = 0.6858 | x2 = 0.8809 | x2 = 0.9794
298.15 K | 12600 | 5400 | – | – | –
313.15 K | – | – | 14.6 | – | 1.061
328.15 K | 830 | – | 9.12 | 1.997 | 0.819

CC[n+]1ccn(C)c1.N#C[S-] + CCO
101 kPa
Settings | viscosity [mPa·s]
283.15 K, x1 = 0.8045 | 22.86
283.15 K, x1 = 0.8971 | 29.28
293.15 K, x1 = 0.8971 | 20.53
303.15 K, x1 = 0.0504 | 1.31
303.15 K, x1 = 0.2012 | 2.31
303.15 K, x1 = 0.951 | 17.12
313.15 K, x1 = 0.0504 | 1.1
313.15 K, x1 = 0.6016 | 6.04
313.15 K, x1 = 0.7018 | 7.47
313.15 K, x1 = 0.8971 | 11.5
313.15 K, x1 = 1 | 14.3
323.15 K, x1 = 0.7018 | 6.02
323.15 K, x1 = 0.951 | 10.17
